In ChEMBL document CHEMBL1155714, “Spongiadioxins A and B, two new polybrominated dibenzo-p-dioxins from an Australian marine sponge Dysidea dendyi” (J Nat Prod, 2001) one finds EC50 and LD50 data, which are given here for two compounds.

Molecules are shown by their SMILES. In brackets after ≈: the same amount, converted by molar mass.

The nature of data set [1]: Cytotoxicity against mouse EAC cells. It is filed as functional. The note with it: Ehrlich, read-out: ED50 (the source's name).
Data set [2] in a line: Toxicity against mouse. Format: organism-based. Particulars: in vivo.

In general, LD50 refers to the dose expected to kill half of the subjects tested. Turning to `Oc1cc(Br)c(Br)c2c1Oc1cc(Br)cc(Br)c1O2` [SPONGIADIOXIN A], the EC50 in data set [1] was 29 µg/mL (≈ 56.2 µM). For the same compound, the median lethal dose (LD50) in data set [2] was > 150 mg/kg.
In the same order, the values of `Oc1c(Br)c(Br)cc2c1Oc1cc(Br)cc(Br)c1O2` [SPONGIADIOXIN B] are 15.5 µg/mL (≈ 30.1 µM) and > 150 mg/kg.
